According to ChEMBL document CHEMBL1140278, “Induction of apoptosis by a novel indirubin-5-nitro-3'-monoxime, a CDK inhibitor, in human lung cancer cells” (Bioorg Med Chem Lett, 2005):

Tests used:
HT-1080 = assay: Inhibitory activity on the proliferation of Human fibrosarcoma HT1080 cancer cells using MTT or sulforhodamine B assay; format: functional, cell-based
HL-60 = assay: Inhibitory activity on the proliferation of Human myeloid leukemia HL-60 cancer cells using MTT or sulforhodamine B assay; format: functional, cell-based
[1] = Inhibitory activity on the proliferation of Human colon carcinoma […] cancer cells using MTT or sulforhodamine B assay; format: functional, cell-based; conditions: Cancer cell lines
A549 [2] = assay: Inhibitory activity on the proliferation of Human lung carcinoma A549 cancer cells using MTT or sulforhodamine B assay; format: functional, cell-based
A549 [3] = assay: Effect of compound on cell cycle progression in Human lung A549 cancer cells at G0/G1 phase after 24 hours of administration; format: functional
A549 [4] = assay: Effect of compound on cell cycle progression in Human lung A549 cancer cells at S phase after 8 hours of administration; format: functional
A549 [5] = assay: Effect of compound on cell cycle progression in Human lung A549 cancer cells at S phase after 24 hours of administration; format: functional
A549 [6] = assay: Effect of compound on cell cycle progression in Human lung A549 cancer cells at S phase after 16 hours of administration; format: functional
A549 [7] = assay: Effect of compound on cell cycle progression in Human lung A549 cancer cells at Sub-G0 phase after 16 hours of administration; format: functional
A549 [8] = assay: Effect of compound on cell cycle progression in Human lung A549 cancer cells at G0/G1 phase after 8 hours of administration; format: functional
A549 [9] = assay: Effect of compound on cell cycle progression in Human lung A549 cancer cells at G2/M phase after 8 hours of administration; format: functional
A549 [10] = assay: Effect of compound on cell cycle progression in Human lung A549 cancer cells at G0/G1 phase after 16 hours of administration; format: functional
A549 [11] = assay: Effect of compound on cell cycle progression in Human lung A549 cancer cells at Sub-G0 phase after 8 hours of administration; format: functional
A549 [12] = assay: Effect of compound on cell cycle progression in Human lung A549 cancer cells at Sub-G0 phase after 24 hours of administration; format: functional
A549 [13] = assay: Effect of compound on cell cycle progression in Human lung A549 cancer cells at G2/M phase after 24 hours of administration; format: functional
A549 [14] = assay: Effect of compound on cell cycle progression in Human lung A549 cancer cells at G2/M phase after 16 hours of administration; format: functional

Row | Structure (SMILES) | IC50 (HT-1080) [µM] | IC50 (HL-60) [µM] | IC50 [1] [µM] | IC50 (A549 [2]) [µM] | Activity (A549 [3]) [%] | Activity (A549 [4]) [%] | Activity (A549 [5]) [%] | Activity (A549 [6]) [%] | Activity (A549 [7]) [%] | Activity (A549 [8]) [%] | Activity (A549 [9]) [%] | Activity (A549 [10]) [%] | Activity (A549 [11]) [%] | Activity (A549 [12]) [%] | Activity (A549 [13]) [%] | Activity (A549 [14]) [%]
1 | O=C1C(c2c(O)[nH]c3ccc(S(=O)(=O)O)cc23)=Nc2ccccc21 | > 100 | > 100 | > 100 | > 100 |  |  |  |  |  |  |  |  |  |  |  | 
2 | O=Nc1c(-c2c(O)[nH]c3ccc([N+](=O)[O-])cc23)[nH]c2ccccc12 | 5.9 | 9.2 | 25.5 | 5.4 | 39.9 | 26.8 | 16.1 | 31.8 | 0 | 46.1 | 27.1 | 46.5 | 0 | 22 | 22 | 21.7
3 | O=Nc1c(-c2c(O)[nH]c3ccccc23)[nH]c2ccccc12 [INDIRUBIN-3-MONOXIME] | 4.8 | > 100 | > 100 | 62 |  |  |  |  |  |  |  |  |  |  |  | 
4 | O=C1Nc2ccccc2/C1=C1/Nc2ccccc2C1=O [INDIRUBIN] | 42.2 | > 100 | > 100 | 31 |  |  |  |  |  |  |  |  |  |  |  | 
